Earlier results, collected in EP3568126B1, “[…] COMPOSITION” (Torrent Pharmaceuticals Limited, priority 2017, dated 2018).

Substance: 3-[(1R,2R)-3-(dimethylamino)-1-ethyl-2-methylpropyl]phenol [tapentadol]
- time of maximum serum concentration (after oral dosing): around 1.25 hours
- administered tapentadol metabolized (first-pass metabolism) (oral administration): about 97%
- bioavailability (oral administration): 32%
- time after administration at which absorption occurs (oral formulations): at least 45 minutes
